Reference: publication PMC12040169 (PLOS Biology, 2025)

Experiment: in vitro
Details: human, hela cells, % viability

Structure (SMILES) | viability at 28.5 h, 10 µM [%]
Nc1cc(Cl)nc(SCC2CCCCC2)n1 [CBK007970] | 93.2
CC(C)(C)OC(=O)NCC(N)=S [CBK007979] | 100
CC(c1cc2ccccc2s1)N(O)C(N)=O (stereo not shown) [CBK008078] | 98.2
CC1(c2ccccc2)NC(NC2CCCCC2)=NC1=O (stereo not shown) [CBK008081] | 97.3
O=c1c2cc(Cl)ccc2sc2ncccc12 [CBK008118] | 97.4
CC(=O)NCC1CC(=O)N(c2ccc(Br)cc2)C1 (stereo not shown) [CBK008134] | 109
CC(C)(C)OC(=O)N[C@@H]1C(=O)OC(C(O)CO)[C@@H]1O (stereo partly shown) [CBK008178] | 118
c1ccc(-c2cnc(C3CCCCC3)o2)cc1 [CBK008192] | 83.1
O=C(c1ccccc1)c1nnsc1-c1ccccc1 [CBK008193] | 97
O=c1cc(N2CCOCC2)oc2ccccc12 [CBK008244G] | 71.5
CN(C)CC(=O)N/N=C/c1ccsc1 [CBK008256C] | 110
C/C(=N/NC(=O)C[N+](C)(C)C)c1nn(-c2ccc(Cl)cc2)nc1C [CBK008258C] | 100
Nc1c2c(nc3ccccc13)CCCC2O (stereo not shown) [CBK008271F] | 95.7
CC(C#CCN(C)C)N1C(=O)CCC1C (stereo not shown) [CBK008291G] | 109
S=c1[nH]nc2ccc(N3CCOCC3)nn12 [CBK008327] | 101
CCOC(=O)NC(=O)C(C#N)/C=N/NC(=O)CCCNc1ncc(C(F)(F)F)cc1Cl (stereo not shown) [CBK008354] | 101
O=S(=O)(NCCNc1ncc(C(F)(F)F)cc1Cl)C(F)(F)F [CBK008366] | 109
CC(=O)C(C)Oc1ncn(-c2ccccc2)n1 (stereo not shown) [CBK008377] | 101
O=C(O)CCCc1nc(-c2cnc3n(c2=O)CCS3)no1 [CBK008438] | 90.1
Cc1nnsc1C(=O)N1CCN(c2cc(C(F)(F)F)ccn2)CC1 [CBK008467] | 86.4
Oc1cc(C(F)(F)F)nc2[nH]nc(-c3cccs3)c12 [CBK008498] | 106
Cc1ccc(Cl)cc1Nc1nc2nc(C)c(NCC3CC3)cn2n1 [CBK008522] | 105
CCCS(=O)(=O)c1ccc(NC(=O)Nc2ccc(Cl)cc2Cl)cc1 [CBK008564] | 76.1
NCc1ccc(C(=O)N(CCc2cc(C(F)(F)F)cc(C(F)(F)F)c2)c2ccc(Cl)c(Cl)c2)cc1 [CBK008632T] | 112
CC1=NC2c3ccsc3C=CC2S1 (stereo not shown) [CBK008720] | 112

Structure (SMILES) | viability at 28.5 h, 10 µM [%]
CC1(C)O[C@@H]2O[C@@H](C(O)CNC(=O)c3ccccc3)[C@@H](NC(=O)c3ccccc3)[C@@H]2O1 (stereo partly shown) [CBK008727] | 101
Cc1n[nH]c(=O)c2nc(-c3ccc(=O)[nH]n3)[nH]c12 [CBK008745] | 102
COc1ccc(NC(=O)N(CCO)C2CCCCC2)c(OC)c1 [CBK008768] | 90.9
COc1cc2c(cc1OC)C(CCCC#N)=[N+](C)C(C)(C)C2 [CBK008807I] | 97.9
CC(C)(C)NCC(O)COc1cccc2c3c(oc12)CCCC3 (stereo not shown) [CBK008871C] | 90.2
CCCCN1C(=S)SC(C)(C)C1N(O)C(=O)C1CCCCC1 (stereo not shown) [CBK008915] | 95.6
c1ccc(-c2ccc(COc3cncc(N4CCNCC4)n3)s2)nc1 [CBK008960G] | 85.4
COc1ccc(C2(CNC(C)(C)CN)CCCC2)cc1OC [CBK008989] | 104
N#CCCN(C1CCCCC1)S(=O)(=O)c1cccc2nsnc12 [CBK009093] | 94
CCC1=NNC(=O)C(CC(=O)Nc2ccccc2)c2cc(OC)c(OC)cc21 (stereo not shown) [CBK009158] | 92.4
Cc1csc2c(N3CCSCC3)ncnc12 [CBK009169] | 100
CCCCOc1ccc(Sc2nc(C)cc(C)n2)cc1 [CBK009219] | 92.1
Nc1ncn(CC(O)CO)c2nc(N3CCOCC3)nc1-2 (stereo not shown) [CBK009231] | 90.8
CC1(C)C(CC(=O)NC2CCCCC2)CC1C(=O)NC1CCCCC1 (stereo not shown) [CBK009260] | 98.8
CC(C)c1cccc2c1OC(C(C)C)C(=O)N2 (stereo not shown) [CBK009286] | 85.2
N#Cc1ccc(S(=O)(=O)NC2CCCCNC2=O)cc1 (stereo not shown) [CBK009293] | 102
O=C1NC2CS(=O)(=O)CC2N1Cc1ccccc1 (stereo not shown) [CBK009306] | 85.7
CCOC(=O)CSC1=NNC(C)(c2c(O)c3ccccc3n(CC)c2=O)N1 (stereo not shown) [CBK009370] | 92.5
O=C(CSc1ccc(Cl)cc1)NCCCN1CCOCC1 [CBK009390] | 99.6
Nc1nc(N)c(Cc2ccc(Cl)cc2Cl)c(N)n1 [CBK009425] | 94.7
COc1cc(CO)c(-c2c[nH][nH]c2=O)cc1OC [CBK009476] | 85.5
CC1COCC(C)N1c1ccc2nnc(-c3ccc(C(F)(F)F)cc3)n2n1 (stereo not shown) [CBK009548] | 81.7
COC(=O)C(Nc1cccc(Cl)c1)(c1cc(OC)c(O)c(OC)c1)C(F)(F)F (stereo not shown) [CBK009591] | 96.6
COCCOCCOc1ccccc1OCCOCCOC [CBK009636] | 89
